The source of these data is patent US20030086952A1, “Highhly concentrated emulsions of organic compounds and methos of use” (priority 2001, published 2003).

Entries after “also recorded” stand apart in the source; their conditions may differ. Marks after values point to notes of the source that are not given here.

What all share (type): physicochemical
A short description of data set [1]: Re-dilution of the concentrated emulsions in water. To be noted: concentrated emulsion diluted in water. As to the method:
(§1) The concentrated emulsions readily re-disperse upon dilution in water to working concentrations of interest. The final concentration of saponin with respect to the organic molecule is easily obtainable at 1:50 or 1:100 w/w, or even less. The shelf life of the concentrated emulsions, either at room temperature (about 25° C.) or at refrigerator temperature (about 4° C.) is at least 1 year, although separation of an emulsion, once stably formed, has not been observed.
Furthermore, no two of the three components were able to form an emulsion on their own under the stated conditions. Emulsions were only possible with all three components.
(§2) It is worth noting that vanillin is a solid at room termperature. The vanillin emulsion was prepared by first heating vanillin to at least 81° C. in order to melt it, then adding the other components.

The nature of data set [2]: Production of concentrated Yucca shidegera saponin emulsions in water (content reached). The conditions noted are these: for Ratio of saponin to emulsified molecule (by mass) / Content (by mass) of molecule in emulsion: Yucca shidegera saponin emulsion in water; for Content (by mass) of molecule in emulsion: mass fraction. On the procedure:
as §1
mulsions of some aqueous-recalcitrant compounds were prepared in water using Yucca shidegera extracts containing about 12-14% saponin, as an emulsifying agent. The saponin preparations were obtained from Danco Natural Products, Pine Valley, Calif., and are sold under the trade names Pure Yucca (about 7-14% saponin and Yucca Ultra (about 10-11% saponin). These preparations had been filtered by the supplier to remove any fibers which could interfere with the emulsification process. The components were combined as follows, using D-limonene as an example.
(§3) D-limonene (B. F. Goodrich/Kalama Chemicals, Kalama, Wash.) in the amount of 50 grams was added directly to a clean glass container. To this, 1.6 grams of yucca saponin was added. The glass container was covered tightly and agitated vigorously. A poor, partially opaque solution resulted. […] 18.4 grams water was then added such that the total weight of the three components was 70 grams. The mixture was agitated again vigorously in a capped container. A viscous, white and truly opaque emulsion resulted. […] To this, another 30 grams limonene was added while mixing to form 100 g final emulsion. The final concentration of D-limonene in the emulsion was 80% by weight. An additional 10 grams of D-limonene can be to bring the final concentration to 90% by weight.
Likewise, other organic compounds can be emulsified by combining about 50 grams of the organic compound with the fraction of saponin indicated in Table 1 and water in a sufficient amount to produce an emulsion upon mixing of the three components. Following formation of the emulsion, the amount of organic compound can be increased as desired.

The nature of data set [3]: Stability of the saponin emulsions (stable emulsion formed, phase separation, recrystallizing, shelf life). The conditions noted are these: for formation of a stable emulsion: with yucca saponin and water. As to the method: as §3, with “vigorously.” for “vigorously. A poor, partially opaque solution resulted.”, “container.” for “container. A viscous, white and truly opaque emulsion resulted.”
as §2

In the case of `C=C(C)[C@H]1CC=C(C)CC1` [d-limonene, D-limonene], the “dilution of emulsion in water” value in data set [1] is reported as “readily diluted up to eighty-fold”. For the same compound, in data set [2], the “Ratio of saponin to emulsified molecule (by mass)” value (shortened to “Ratio of saponin”) is listed as 1/78 and the “Content (by mass) of molecule in emulsion” value (“Content (by mass)” below) was “.909”. For the same compound, in data set [2] (stable saponin emulsion in water, two step mixing), the “concentration of organic compound in the emulsion” value worked out at 80 % by weight. The “phase separation of emulsion” value in data set [3] (ambient temperature, 50:12:1 D-limonene:water:saponin) was “will not undergo phase separation for up to two weeks”. Moreover, the “formation of a stable emulsion” value in data set [3] is “stable emulsion”.
As to `COc1cc(C=O)ccc1O` [vanillin], in data set [2], the “Ratio of saponin” value is on record as 1/34 and the “Content (by mass)” value is given as “.566”. For the same compound, the “stability of emulsion without recrystallizing” value in data set [3] (room temperature, prepared from melt (>81° C.)) was “stable at room temperature without recrystallizing”.
Take cedryl acetate: in data set [2], the “Ratio of saponin” value is listed as 1/196 and the “Content (by mass)” value is reported as “.794”.
Consider `O=CC=Cc1ccccc1` [cinnamaldehyde], for which, in data set [2], the “Ratio of saponin” value is 1/50 and the “Content (by mass)” value is listed as “.899”.
The like results for `C=C(C)C1CC=C(C)CC1` (single isomer, unassigned; (+)) [(+) limonene] were, in that order, 1/18* and “.690”.
For `COc1cc(/C=C/C=O)cc(OC)c1O` [sinapaldehyde], the “formation of a stable emulsion” value in data set [3] is on record as “did not form stable emulsions; also recorded: stable emulsions were not obtained”.
Turning to `COc1cc(/C=C/C=O)ccc1O` [coniferaldehyde], in data set [3], the “formation of a stable emulsion” value is recorded as “did not form stable emulsions; also recorded: stable emulsions were not obtained”.
For the compound `O=C(OCc1ccccc1)c1ccccc1` [benzyl benzoate], in data set [2], the “Ratio of saponin” value is on record as 1/55 and the “Content (by mass)” value was “.534”.
As to `C=CCc1ccc(O)c(OC)c1` [eugenol], the “formation of a stable emulsion” value in data set [3] was “did not form stable emulsions; also recorded: stable emulsions were not obtained”.
The same measure, in the same setting: under `CC/C=C\CC1C(=O)CCC1CC(=O)OC` (stereo not drawn) [methyl jasmonate] stands “did not form stable emulsions”.
